Experimental data: patent US11214787B2, “Modified beta-lactamases and methods and uses related thereto” (priority 2010, dated 2022)

Format: in vivo
Conditions: beagle dogs; single dose ceftriaxone 30 mg/kg i.v., without beta-lactamase
Description: The capability of Bacillus licheniformis D276N mutant beta-lactamase enzyme to inactivate ceftriaxone (CRO) which has been excreted into the gastrointestinal tract during parenteral therapy was investigated in a dog model. Laboratory beagles of the study have a nipple valve surgically inserted in jejunum approximately 170 cm distal to pylorus enabling collection of samples for the analysis. […] Five beagle dogs were utilized in each experiment.
The study was performed as two sequential treatments: In the first treatment (control experiment without beta-lactamase therapy), a single dose of ceftriaxone (30 mg of ceftriaxone (CRO) per kg of body weight which corresponds to about 1 gram dose of CRO in humans) was administered intravenously minutes after the first feeding of the dogs. Jejunal samples were collected at various time points during ten hours. The dogs were fed again five hours and forty minutes after the ceftriaxone administration in order to induce the biliary excretion of ceftriaxone accumulated in gallbladder.
Jejunal chyme samples were immediately freezed and stored at −20° C. to await the analysis. Chyme samples were pretreated with perchloric-citric acid in order to precipitate interfering substances. […] A reverse-phase high-pressure chromatography method with UV detection was used for the quantification of ceftriaxone in supernatants. […]

## CO/N=C(\C(=O)N[C@@H]1C(=O)N2C(C(=O)O)=C(CSc3nc(=O)c(=O)[nH]n3C)CS[C@H]12)c1csc(N)n1 [ceftriaxone]
  highest jejunal ceftriaxone concentration: about 1500 micrograms per gram of jejunal chyme
  time of highest jejunal ceftriaxone concentration after injection: 60 min
